Test results from patent US20160297828A1, “SPIROCYCLIC COMPOUNDS CONTAINING SPIRO[INDOLYL-3,1'-PYRROLO[3,4-C]PYRROLE] CORE AND SULPHUR-CONTAINING AMINO ACID RESIDUES” (priority 2013, published 2016).
Several values for one entry are separate records, joined by “and”; a condition that tells them apart may be missing. Equal entries are not always repeated. Marks after values point to notes of the source that are not given here.

Experiments:
[1] = system: 11β-corticosterone; assay: 11β-corticosterone level in venous blood of pseudo-operated rats (ELISA); assay type: in vivo, Wistar rats; conditions: pseudo-operated animals + SI-86 10 mg/kg iv
Method: Pseudo-operated rats were exposed to all interventions (anesthesia, skin incision, dissection of vessels) except arteries ligation that leveled traumatic impact of experimental conditions.
To determine a corticosterone level (species-specific cortisol analogue in rats, which is also a substrate for 11β-HSD1) in the corresponding period (4 th and 21 st CVA day) in rat by sagittal sinus puncture, blood was sampled (0.2-0.4 ml). The cortisol level was measured by ELISA using a CORTICOSTERONEE KIT set (Germany) on the instrument of the company “Hipson” (Czech Republic).
To establish the effect of course administration of SI-86 compound on steroid synthesis in animals without cerebral ischemia the dynamics of its level in pseudo-operated rats in the same period was additionally determined.

[2] = system: neuron-specific enolase (NSE); assay: Neuron-specific enolase (NSE) activity in rats with intracerebral hemorrhage (ELISA); assay type: in vivo; conditions: for NSE activity (dynamics of neurodestructive changes): acute cerebral hemorrhage, n = 7; for enzyme activity decreased in relation to the control pathology group / efficiency in reducing NSE better than citocoline: hemorrhage
Method: The derivative of 3,2′-spiro-pyrrolo-2-oxindole was investigated in conventionally effective dose of 10 mg/kg […] (iv)—dose that according to the results of our previous studies provided maximum antihypoxic activity of SI-86 compound. Reference drugs were injected intraperitoneally (ip). […] Autoblood was injected to rats with control pathology and 0.9% NaCI solution was administered as therapy calculated for 2 ml/kg ip.
Psevdooperated rats were exposed to all interventions (anesthesia, craniotomy) with the exception of autoblood administration that leveled traumatic impact of experimental conditions.
To determine neuron-specific enolase, the specific marker of cerebral ischemia,—for corresponding period (4 th and 21 st day of CVA) in rats, blood was sampled by sagittal sinus puncture (0.2-0.4 ml). NSE activity was measured by ELISA using a set NSE EIA KIT (DAI, USA) on the instrument of the company “Hipson” (Czech Republic).

[3] = system: rats; assay: Acute toxicity in rats; assay type: in vivo; conditions: for Effect (died/total): 2 weeks observation
Method: (§1) The acute toxicity study was conducted when administered compounds SI-86 to rats into the stomach at doses of 3500 and 4000 mg/kg. Each dose was tested in 4 animals. The duration of observation of rats after administration of test compound was 2 weeks.

[4] = Acute toxicity in rats; assay type: in vivo; conditions: rat, in vivo, oral; rats
Method: as §1

[5] = system: rats with intracerebral hemorrhage; assay: Conditioned response of passive avoidance (CRPA) in rats with intracerebral hemorrhage; assay type: in vivo; conditions: 21st day, n = 15
Method: Neuroprotective effect of 3,2′-spiro-pyrrolo-2-oxindole derivative (SI-86 compound) was studied on IUD model of moderate severity modeled under propofol anesthesia (60 mg/kg intraperitoneally (ip)) by autoblood administration into the brain internal capsule (stereotactic coordinates of the projection: H=7.0 mm, L=3.0 mm, A=1.5 mm from bregma) ([…]) (Method for reproduction of intracerebral hemorrhage in rats/O. K. Yarosh, S. V. Kyrychenko, S. P. Halimonchyk [et al.]//Circulation and hemostasis.-2005.-No. 1.-P. 77-81). The chosen model allows to reproduce clinical pattern of […] and is adequate for clinical study of potential neuroprotective agents.
As comparators the following drugs were used: mexydol (“Mexydol” UC Pharmasoft, Russia), 100 mg/kg; citicoline (“Somazina” Ferrer International, SA, Spain), 250 mg/kg; aktovegin (“Aktovegin”, Nycomed, Austria), 16 mg/kg pyracetam (“Pyracetam” Darnitsa, Ukraine), 400 mg/kg. According to the latest clinical guidelines regarding the treatment of patients with CVA approved by the Ministry of Health of Ukraine (Order No. 602 dated 3 Aug. 2012), all these drugs are allowed to be included into schemes for intensive patients therapy with CVA as neuroprotective agents. They were used at recommended doses for preclinical studies (McGrow C. P. Experimental Cerebral Infarction Effects of Pentobarbital in Mongolian Gerbils/C. P. McGrow//Arch. Neurol.-1977.-Vol. 34, No. 6.-P. 334-336). Experimental therapy of acute cerebral ischemia with SI-86 compound and comparator started 1 hour after IUD once a day for 21 days. The SI-86 derivative was investigated in conventionally effective dose of 10 mg/kg […] (iv)-dose that according to the results of our previous study provides maximum antihypoxic activity of SI-86 compound. Reference drugs were injected intraperitoneally (ip). Rats of control pathology group were injected by autoblood and as therapy 0.9% NaCI solution was administered calculated for 2 ml/kg […].
Evaluation of the ability of animals to learn and memorize of aversive stimulus was examined in the test of conditioned response of passive avoidance (CRPA). The technique is based on innate rat instinct to limited shadowy space. The study in rats was conducted in two-compartment unit consisted of two sections—light and dark. An animal was arranged into light compartment, fixing latency time for entering into the dark compartment, wherein rat received current irritation and ran in the light compartment. CRPA retention was tested every other day under latency time change of rat entering into the dark compartment. Also the number of animals was noted not fully entered the dark chamber. Cerebroprotective efficiency criteria of studied compounds were also animal death term (days) and their mortality rate (in %).

[6] = system: rats; assay: Acute normobaric hypoxic hypoxia with hypercapnia (ANHHH), life duration; assay type: in vivo; conditions: preventive administration; SI-86 and SI-108 10 mg/kg iv, mexydol 100 mg/kg ip
Method: The study of antihypoxic activity of 10 original derivatives of 3,2′-spiro-pyrrolo-2-oxindole was conducted on models of acute normobaric hypoxic hypoxia with hypercapnia (ANHHH) and acute asphyxia. ANHHH was modeled by means of rat arrangement into isolated pressure compartments (0.001 m^3). The observation conducted until the death of the animals. The antihypoxic activity was assessed by life duration (in minutes) in relation to the control taken as 100%, by the formula AA=tt/tk×100%, wherein AA—antihypoxic activity (%), tt—life duration of test animals, tc—life duration of control animals.
The preliminary screening of test substances was performed on ANHHH model. All derivatives were administered in the same dose of 10 mg/kg […] (iv) 1 hour prior to pathological state modeling. […] The effectiveness of a leader compound was evaluated at doses 5; 10 and 15 mg/kg iv. Mexydol was chosen as a reference drug having antihypoxic action in combination with antioxidant and membrane protective activity, which is successfully used in patients with CVA and IM. Mexydol was administered intraperitoneally (ip) at a dose of 100 mg/kg according to similar scheme.

SMILES: CSCC[C@@H]1N[C@@]2(C(=O)Nc3ccccc32)[C@@H]2C(=O)N(c3ccc(C)cc3)C(=O)[C@H]12 [SI-86, 5′-(4-Methylphenyl)-3′-[2-(methylthio)ethyl]-3a′,6a′-dihydro-2′H-spiro[indole-3,1′-pyrrolo[3,4-c]pyrrol]-2,4′,6′(1H,3′H,5′H)-trione]
- 11β-corticosterone level in venous blood ([1]; day 4): 81.95 ± 0.61 ng/mL
- dynamics in percents in relation to the group of pseudo-operated animals ([1]; day 4): (−31.9%)
- 11β-corticosterone level in venous blood ([1]; day 21): 83.02 ± 4.25 ng/mL
- dynamics in percents in relation to the group of pseudo-operated animals ([1]; day 21): (−10.2%)
- NSE activity (dynamics of neurodestructive changes) ([2]; day 4, SI-86 10 mg/kg iv, citocoline 250 mg/kg ip): 1.065 ± 0.019*^#•
- NSE activity (dynamics of neurodestructive changes) ([2]; day 21, same doses): 0.260 ± 0.014*^#•
- enzyme activity decreased in relation to the control pathology group ([2]; 96 hours): 2.6 times
- enzyme activity decreased in relation to the control pathology group ([2]; 21 days): 3.6 times
- efficiency in reducing NSE better than citocoline ([2]; acute period): 17.6%
- efficiency in reducing NSE better than citocoline ([2]; recovery period): 15.9%
- Effect (died/total) ([3]; 3500 mg/kg single administration): all animals survived and 0/4
- rats died ([3]; 4000 mg/kg): 25%
- Effect (died/total) ([3]; 4000 mg/kg single administration): 1/4
- toxicity class according to Hodge and Sterner classification ([3]; rat, in vivo): IV class of toxicity
- LD50 at 2 weeks [4]: 501 to 5000 mg/kg
- Latent period for entrance into dark compartment, prior study ([5]; SI-86 10 mg/kg iv, mexydol 100, citocoline 250, actovegin 16, pyracetam 400 mg/kg ip): 9.50 ± 0.34°*^#•$ s
- Latent period for entrance into dark compartment, 24 hours after study ([5]; same doses): 127.10 ± 2.71°*^#•$ s
- increase of life duration in rats in relation to control [6]: 33.7%
